Experimental data reported in US20250115595A1, “INHIBITORS OF HYPOXIA-INDUCIBLE FACTORS” (The Johns Hopkins University, priority 2021, published 2025).

What was measured:
C57BL/6 mice = assay: Laser CNV model, intravitreal dosing; assay type: in vivo, mouse; conditions: single IVT injection 70 ng on day 3, day 7
Procedure: To evaluate the efficacy of 32-134D following intraocular administration, the laser CNV model for neovascular (wet) age-related macular degeneration was used (FIG. 25A). C57BL/6 mice were treated with laser on day 0. On day 3, mice were treated with a single IVT injection with 32-134D (1 μl of 14 or 70 ng/μl solution) or with vehicle control. On day 7, mice were euthanized and choroidal flat mounts were stained with isolectin B4 to examine the area of CNV.
Intraocular injections: Intravitreal injections were performed with a PLI-100A Pico-liter Microinjector (Warner Instruments, Harvard Bioscience) using pulled-glass micropipettes. Each micropipette was calibrated to deliver a 1 μl volume on depression of a foot switch. The mice were anesthetized with a ketamine (100 mg/kg) and xylazine (5 mg/kg) mixture, and under a dissecting microscope, the sharpened tip of the micropipette was passed through the sclera just posterior to the limbus into the vitreous cavity and the foot switch was depressed, which caused fluid to penetrate into the vitreous space. Test compound was injected into the vitreous cavity in OIR and STZ mice for vascular permeability test, retinal vasculature and lysates for WB and qPCR analysis.

Hepa1-6 mouse HCC cells = assay: RT-qPCR of hypoxia-induced mRNAs in Hepa1-6 cells; assay type: cell-based
Procedure: Effects of 32-134D on Hepa1-6 mouse HCC cells and tumors. […] Thus, 32-134D inhibits the ability of hypoxic HCC cells to increase O2 delivery by stimulating angiogenesis (Angpt14, Pgf, Vegfa) or […] anaerobic metabolism by increasing glycolytic flux (Glut1, Pgk1, Ldha).
Human Hep3B and mouse Hepa1-6 cells were purchased from ATCC and grown in high-glucose (4.5 mg/ml) Dulbecco's modified Eagle's medium supplemented with 10% (vol/vol) fetal bovine serum and […] at 37° C. in a 5% CO2/95% air incubator (20% O2). Human cell line identity was authenticated by analysis of short tandem repeats, and all cell lines were maintained mycoplasma free, using PCR-based assays conducted at the Johns Hopkins University Genetic Resources Core Facility. Cells were subjected to hypoxia in a controlled atmosphere chamber (PLAS Labs) with ambient gas mixture containing 1% O2 and 5% CO2.
RNA was extracted using TRIzol Reagent (ThermoFisher). Quantitative Real-time PCR was conducted using SYBR Green PCR Master Mix (BioRad) and reactions were run using the BioRad thermal cycler (BioRad). The mRNA expression of target genes was normalized to the expression of 18S rRNA and the fold change (FC) was calculated based on the threshold cycle (Ct) as […]

Brc1ccc2c(-c3csc(-c4c[nH]c5c(Br)cccc45)n3)c[nH]c2c1 [Compound 32-134D, 4-(6-bromo-1H-indol-3-yl)-2-(7-bromo-1H-indol-3-yl)thiazole]
CNV area (C57BL/6 mice): significant decrease | hypoxia induction of B7h4 and Tim3 mRNAs (Hepa1-6 mouse HCC cells; Hepa1-6 cells, 5 μM): hypoxia-induced in vehicle but not in 32-134D-treated cells | hypoxia induction of Pdl1 mRNA (Hepa1-6 mouse HCC cells; Hepa1-6 cells, 5 μM): hypoxia-induced in vehicle-treated but not in 32-134D-treated cells | hypoxia-induced expression of Glut1 and Ldha (Hepa1-6 mouse HCC cells; Hepa1-6 cells, 5 μM): blocked | decreased Cxcl1, Il6 and Il10 mRNA levels (Hepa1-6 mouse HCC cells; cultured Hepa1-6 cells): not in cultured Hepa1-6 cells exposed to 32-134D | hypoxia-induced IL22 mRNA expression (Hepa1-6 mouse HCC cells; cultured Hepa1-6 cells): inhibited | hypoxia-induced expression of mRNA encoding Angpt14, Pgf, Vegfa and Pgk1 (Hepa1-6 mouse HCC cells; hypoxic Hepa1-6 cells): significant dose-dependent inhibition
